Earlier results on one compound are cited in article PMC6699497 (Drug Design, Development and Therapy, 2019).

SMILES strings stand for the structures.

The conditions of data set [1]: species not given.
For data set [2] the following is noted: rat.
Setting [3] is: previous study compared with present value.

By Cmax is commonly meant the highest concentration seen after dosing. As to `CNC(=O)c1c(C)oc2cc(Oc3ncnc4cc(OC)c(OC)cc34)ccc12` [Fruquintinib, 6-(6,7-dimethoxyquinazolin-4-yloxy) - N,2-dimethylbenzofuran-3-carboxamide], the “plasma protein binding fraction” value in data set [1] was 88–95%. For the same compound, the oral bioavailability in data set [2] is reported as 42–53%. In data set [2] (setting [3]), the Cmax was 326.00 ng/mL and the t1/2 was 1.40 h.
